For this series, the system named is A549 cells. Put plainly: Cell viability of dox-treated A549 cultures with oligonucleotide-modified nanoparticles. The series is classed as cell-based, human. Particulars: dox alone at 25 μm dox concentration. Here is the method:
As proof of the oligonucleotide-modified gold nanoparticle for drug control concept, the anticancer drug doxorubicin hydrochloride (dox) in a lung cancer cell model (A549) was investigated. […] However, when an oligonucleotide functionalized nanoparticle agent containing a non-specific sequence is added to the culture at the same point as the drug molecule, a dose-dependant recovery of cell viability is observed (cells recover to approximately 80% viable at 3 nM concentration of nanoparticles). The dox-treated cells were then examined in the presence of an anti-survivin oligonucleotide modified gold nanoparticle conjugate. […] In these studies, the anti-survivin containing nanoparticle agent added to the culture at the same point as the drug molecule reduce cell viability to 45% at low concentrations and recover cell viability to 75% at high concentrations (FIG. 3).

Molecules are shown by their SMILES. Structures can show the parent of a compound that is named as a salt.

Take `COc1cccc2c1C(=O)c1c(O)c3c(c(O)c1C2=O)C[C@@](O)(C(=O)CO)C[C@@H]3O[C@H]1C[C@H](N)[C@H](O)[C@H](C)O1` [dox, doxorubicin hydrochloride]: the cell viability entry is recorded as “approximately 60%”.

These data come from US9506056B2, “Nucleic acid functionalized nanoparticles for therapeutic applications” (NORTHWESTERN UNIVERSITY, priority 2006, dated 2016).
